This test deals with T1, recombinant MtbUGM (Mycobacterium tuberculosis, UniProt P9WIQ1).
T1 construct: made in house
In words: biochemical. The conditions noted are these: for inhibition at 100 µM: read-out: % inhib MtbUGM (100 μM); for inhibition at 50 µM: read-out: % inhib MtbUGM (50 μM); for inhibition at 10 µM: read-out: % inhib MtbUGM (10 μM).

Read-outs that look alike come from different tables or passages of the source.

T1 sequence (P9WIQ1 whole entry): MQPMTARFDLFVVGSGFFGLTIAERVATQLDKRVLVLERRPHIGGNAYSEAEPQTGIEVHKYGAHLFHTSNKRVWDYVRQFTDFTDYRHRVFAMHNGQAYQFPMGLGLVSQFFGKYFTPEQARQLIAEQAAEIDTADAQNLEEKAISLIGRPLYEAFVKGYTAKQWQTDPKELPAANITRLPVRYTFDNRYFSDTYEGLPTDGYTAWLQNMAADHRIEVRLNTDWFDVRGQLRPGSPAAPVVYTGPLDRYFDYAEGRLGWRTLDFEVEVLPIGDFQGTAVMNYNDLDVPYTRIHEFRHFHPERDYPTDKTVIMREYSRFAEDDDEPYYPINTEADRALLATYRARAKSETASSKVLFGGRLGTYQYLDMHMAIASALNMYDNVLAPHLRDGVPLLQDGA

`O=C(O)CC1Sc2nnc(-c3cccs3)n2N=C1c1ccc(Cl)cc1` (stereo not drawn) [Compound 15, 2-(6-(4-chlorophenyl)-3-(thiophen-2-yl)-7H-[1,2,4]triazolo[3,4-b][1,3,4]thiadiazin-7-yl)acetic acid]: where the note is “100 μM, mean of two replicates”, the inhibition at 100 µM came to 50%.
Regarding `O=C(O)CC1Sc2nnc(Cc3ccc(Br)cc3)n2N=C1c1ccc(Cl)c(Cl)c1` (stereo not drawn) [Compound 16, 2-(3-(4-bromobenzyl)-6-(3,4-dichlorophenyl)-7H-[1,2,4]triazolo[3,4-b][1,3,4]thiadiazin-7-yl)acetic acid], the inhibition at 50 µM (50 μM, mean of two replicates) stood at 78%. Also, the inhibition at 100 µM (100 μM, mean of two replicates) came to 95%.
On the same counts, the results for `Cc1ccc(C2=Nn3c(Cc4ccc(Br)cc4)nnc3SC2CC(=O)O)cc1C` (stereo not drawn) [Compound 17, 2-(3-(4-bromobenzyl)-6-(3,4-dimethylphenyl)-7H-[1,2,4]triazolo[3,4-b][1,3,4]thiadiazin-7-yl)acetic acid] are 41% and 80%.
For the molecule `O=C(O)CC1Sc2nnc(-c3cccs3)n2N=C1c1ccc(Cl)c(Cl)c1` (stereo not drawn) [Compound 18, 2-(6-(3,4-dichlorophenyl)-3-(thiophen-2-yl)-7H-[1,2,4]triazolo[3,4-b][1,3,4]thiadiazin-7-yl)acetic acid], where the note is “100 μM, mean of two replicates”, the inhibition at 100 µM is 80%.
Take `O=C(O)CC1Sc2nnc(Cc3ccc(Br)cc3)n2N=C1c1ccc(Br)cc1` (stereo not drawn) [Compound 19, 2-(3-(4-bromobenzyl)-6-(4-bromophenyl)-7H-[1,2,4]triazolo[3,4-b][1,3,4]thiadiazin-7-yl)acetic acid]: where the note is “50 μM, mean of two replicates”, the inhibition at 50 µM worked out at 67%. Further, the inhibition at 100 µM (100 μM, mean of two replicates) worked out at 90%.
Consider `O=C(O)CC1Sc2nnc(Cc3ccc(Br)cc3)n2N=C1c1ccc(C(F)(F)F)cc1` (stereo not drawn) [Compound 20, 2-(3-(4-bromobenzyl)-6-(4-(trifluoromethyl)phenyl)-7H-[1,2,4]triazolo[3,4-b][1,3,4]thiadiazin-7-yl)acetic acid], for which, for the setting “50 μM, mean of two replicates”, the inhibition at 50 µM turned out to be 11%. The inhibition at 100 µM (100 μM, mean of two replicates) was 57%.
On the same counts, the results for `Cc1ccc(C2=Nn3c(Cc4ccc(Br)cc4)nnc3SC2CC(=O)O)cc1` (stereo not drawn) [Compound 21, 2-(3-(4-bromobenzyl)-6-(p-tolyl)-7H-[1,2,4]triazolo[3,4-b][1,3,4]thiadiazin-7-yl)acetic acid] are 32% and 63%.
On the same counts, the results for `COc1ccc(C2=Nn3c(Cc4ccc(Br)cc4)nnc3SC2CC(=O)O)cc1` (stereo not drawn) [Compound 22, 2-(3-(4-bromobenzyl)-6-(4-methoxyphenyl)-7H-[1,2,4]triazolo[3,4-b][1,3,4]thiadiazin-7-yl)acetic acid] are 35% and 44%.
For `O=C(O)CC1Sc2nnc(Cc3ccc(Br)cc3)n2N=C1c1ccc(F)cc1` (stereo not drawn) [Compound 23, 2-(3-(4-bromobenzyl)-6-(4-fluorophenyl)-7H-[1,2,4]triazolo[3,4-b][1,3,4]thiadiazin-7-yl)acetic acid], the inhibition at 50 µM (50 μM, mean of two replicates) amounted to 25%. Further, the inhibition at 100 µM (100 μM, mean of two replicates) came to 39%.
For the molecule `Cc1ccc(C2=Nn3c(Cc4ccc(Br)cc4)nnc3SC2CC(=O)O)c(C)c1` (stereo not drawn) [Compound 24, 2-(3-(4-bromobenzyl)-6-(2,4-dimethylphenyl)-7H-[1,2,4]triazolo[3,4-b][1,3,4]thiadiazin-7-yl)acetic acid], under “50 μM, mean of two replicates”, the inhibition at 50 µM stood at 1%. Moreover, for the setting “100 μM, mean of two replicates”, the inhibition at 100 µM worked out at 0%.
Take `O=C(O)CC1Sc2nnc(-c3ccc(Br)cc3)n2N=C1c1ccc(Cl)cc1` (stereo not drawn) [Compound 26, 2-(3-(4-bromophenyl)-6-(4-chlorophenyl)-7H-[1,2,4]triazolo[3,4-b][1,3,4]thiadiazin-7-yl)acetic acid]: the inhibition at 50 µM (50 μM, mean of two replicates) worked out at 23%. In addition, the inhibition at 100 µM (100 μM, mean of two replicates) was 41%.
On the same counts, the results for `O=C(O)CC1Sc2nnc(CCc3ccc(Br)cc3)n2N=C1c1ccc(Cl)cc1` (stereo not drawn) [Compound 27, 2-(3-(4-bromophenethyl)-6-(4-chlorophenyl)-7H-[1,2,4]triazolo[3,4-b][1,3,4]thiadiazin-7-yl)acetic acid] are 48% and 69%.
`O=C(O)CC1Sc2nnc(Cc3ccccc3)n2N=C1c1ccc(Cl)cc1` (stereo not drawn) [Compound 28, 2-(3-benzyl-6-(4-chlorophenyl)-7H-[1,2,4]triazolo[3,4-b][1,3,4]thiadiazin-7-yl)acetic acid]: where the note is “50 μM, mean of two replicates”, the inhibition at 50 µM is 30%. For the same molecule, the inhibition at 100 µM (100 μM, mean of two replicates) was 43%.
On the same counts, the results for `O=C(O)CC1Sc2nnc(Cc3ccc(-c4ccccc4)cc3)n2N=C1c1ccc(Cl)cc1` (stereo not drawn) [Compound 29, 2-(3-([1,1′-biphenyl]-4-ylmethyl)-6-(4-chlorophenyl)-7H-[1,2,4]triazolo[3,4-b][1,3,4]thiadiazin-7-yl)acetic acid] are 100% and 100%.
On to `O=C(O)CC1Sc2nnc(Cc3ccc4ccccc4c3)n2N=C1c1ccc(Cl)cc1` (stereo not drawn) [Compound 30, 2-(6-(4-chlorophenyl)-3-(naphthalen-2-ylmethyl)-7H-[1,2,4]triazolo[3,4-b][1,3,4]thiadiazin-7-yl)acetic acid], for which the inhibition at 50 µM (50 μM, mean of two replicates) stood at 49%. Besides, for the setting “100 μM, mean of two replicates”, the inhibition at 100 µM amounted to 88%.
On to `O=C(O)CC1Sc2nnc(Cc3ccc(-c4ccccc4)cc3)n2N=C1c1ccc(Cl)c(Cl)c1` (stereo not drawn) [Compound 31, 2-(3-([1,1′-biphenyl]-4-ylmethyl)-6-(3,4-dichlorophenyl)-7H-[1,2,4]triazolo[3,4-b][1,3,4]thiadiazin-7-yl)acetic acid], for which the inhibition at 10 µM (10 μM, mean of two replicates) worked out at 50%. The inhibition at 50 µM (50 μM, mean of two replicates) was found to be 100%. Further, the inhibition at 100 µM (100 μM, mean of two replicates) came to 100%.
Consider `COC(=O)CC1Sc2nnc(-c3cccs3)n2N=C1c1ccc(Cl)cc1` (stereo not drawn) [Compound 32, Methyl-2-(6-(4-chlorophenyl)-3-(thiophen-2-yl)-7H-[1,2,4]triazolo[3,4-b][1,3,4]thiadiazin-7-yl)acetate], for which the inhibition at 100 µM (100 μM, mean of two replicates) was 20%.
On to `C=CCNC(=O)CC1Sc2nnc(-c3cccs3)n2N=C1c1ccc(Cl)cc1` (stereo not drawn) [Compound 34, N-allyl-2-(6-(4-chlorophenyl)-3-(thiophen-2-yl)-7H-[1,2,4]triazolo[3,4-b][1,3,4]thiadiazin-7-yl)acetamide], for which the inhibition at 100 µM (100 μM, mean of two replicates) came to 0%.
Same read-out and setting: as for `C=CCNC(=O)CC1Sc2nnc(Cc3ccc(Br)cc3)n2N=C1c1ccc(Cl)cc1` (stereo not drawn) [Compound 35, N-allyl-2-(3-(4-bromobenzyl)-6-(4-chlorophenyl)-7H-[1,2,4]triazolo[3,4-b][1,3,4]thiadiazin-7-yl)acetamide], the figure is 0%.
Take `O=C(CC1Sc2nnc(Cc3ccc(Br)cc3)n2N=C1c1ccc(Cl)cc1)NS(=O)(=O)c1cccs1` (stereo not drawn) [Compound 36]: the inhibition at 10 µM stood at 18%, the inhibition at 50 µM came out at 87% and the inhibition at 100 µM worked out at 100%.
`O=C(CC1Sc2nnc(Cc3ccc(Br)cc3)n2N=C1c1ccc(Cl)cc1)NS(=O)(=O)c1ccc(Cl)s1` (stereo not drawn) [Compound 37]: the inhibition at 10 µM stood at 35%, the inhibition at 50 µM was determined as 100% and the inhibition at 100 µM was determined as 100%.
For `Cn1cnc(S(=O)(=O)NC(=O)CC2Sc3nnc(Cc4ccc(Br)cc4)n3N=C2c2ccc(Cl)cc2)c1` (stereo not drawn) [Compound 38], the inhibition at 50 µM came out at 36% and the inhibition at 100 µM stood at 68%.
Regarding `O=C(CC1Sc2nnc(Cc3ccc(Br)cc3)n2N=C1c1ccc(Cl)c(Cl)c1)NS(=O)(=O)c1ccccc1` (stereo not drawn) [Compound 39], the inhibition at 10 µM is 51%, the inhibition at 50 µM amounted to 100% and the inhibition at 100 µM amounted to 100%.

The values above are taken from patent publication US10080757B2 (WISCONSIN ALUMNI RESEARCH FOUNDATION, priority 2016, dated 2018).
